Values of other authors in patent US11622956B1, “Compound and method for treating diseases and disorders” (priority 2019, dated 2023).

How the values were obtained:
[1] = test system: joint pain; conditions: dogs
[2] = oral
[3] = test system: ataxia; conditions: high levels of hemp-derived CBD
[4] = test system: static ataxia; conditions: dogs, IV

COc1cccc(C2(O)CCCCC2CN(C)C)c1 (centres unmarked) [tramadol, Tramadol]
peak vertical force or vertical impulse versus placebo [1]: no improvement

C=C(C)[C@@H]1CCC(C)=C[C@H]1c1c(O)cc(CCCCC)cc1O [CBD, Cannabidiol]
fraction of orally administered CBD ultimately absorbed, at best [2]: 15-20%
fraction of orally administered CBD ultimately absorbed, on average [2]: 5-10%
dogs with ataxia [3]: 2 of the 10

CCCCCc1cc(O)c2c(c1)OC(C)(C)[C@@H]1CCC(C)=C[C@@H]21 [THC, tetrahydrocannabinol]
dose producing static ataxia [4]: > 0.5 mg/kg
